Measurements published in patent publication US20180116224A1, “PESTICIDAL COMPOSITIONS AND RELATED METHODS” (priority 2015, published 2018).

Tested on: green peach aphid (Myzus persicae)
Assay: pesticidal activity against green peach aphid on cabbage plants after soil treatment
Type: in vivo
Conditions: for number of live GPA aphids: 6.25 ppm loading, no soil conditioner
Protocol: Each tested compositions was prepared by mixing a predetermined amount of the CLOSER® SC insecticide (a sulfoxaflor concentrate having a sulfoxaflor concentration of 240 g/L) with a predetermined amount of the organic soil conditioner ACCELL®-STR in an aqueous medium.
The compositions containing different amounts of sulfoxaflor and the organic soil conditioner ACCELL®-STR were prepared as shown in TABLE 1. For example, the “Sulfoxaflor at 6.25 ppm” composition contained about 0.003% weight of sulfoxaflor based on total weight of the composition (i.e., 6.25 ppm of sulfoxaflor per one gram of final soil mixture). “Sulfoxaflor at 6.25 ppm+ACCELL®-STR at 384 ppm” composition contained about 0.003% weight of sulfoxaflor based on total weight of the composition (i.e., 6.25 ppm of sulfoxaflor per one gram of final soil mixture), and about 0.225% weight of the organic soil conditioner ACCELL®-STR based on total weight of the composition (i.e., 384 ppm per one gram of the final soil mixture; 1500 ppm per one gram of the total soil liquid).
The imidacloprid pesticide PROVADO® 1.6 from Bayer CropScience LP (North Carolina, USA) was used as a standard commercial pesticidal composition for aphid control. The imidacloprid pesticide PROVADO® 1.6 was tested at the same loading as that used for the sulfoxaflor, which was 6.25 ppm per gram of final soil mixture.
In this EXAMPLE 4, water was tested as a control composition. Furthermore, an aqueous solution of the organic soil conditioner ACCELL®-STR was tested.
Cabbage plants (Brassica oleracea capitata L) of uniform size (two new leaf stage) infested with green peach aphids (Myzus persicae) (“GPA”) were used as the study models according to the following procedure:
Cabbage seeds were planted in 3-inch pots containing a peat-based METRO MIX 360® potting soil available from SUN GRO® Horticulture Canada, Ltd. The seeds were propagated in greenhouse zone G4, located in the R&D building of Dow AgroSciences (Indianapolis, Ind., USA), at 26° C. with a relative humidity of 53%. Natural light was supplemented with 1,000-watt metal halide overhead lamps with an average illumination of about 500 μE/m^2.s photosynthetic active radiation for 16 consecutive hours each day.
Each of the 1-ounce clear cups was filled with about 30 grams of the inoculated Midwest field soil having the components as shown in TABLE 2. […] The soil moisture of the Midwest field soil was about 15% as measured by Mettler LJ16 Moisture Analyzer (15 minutes and 100° C.).
The Midwest field soil in each selected 1-ounce cup was treated with about 9 mL of the selected composition using a 10 mL pipette. […]
The pesticidal activity against GPA was determined three days after infestation, by counting the number of live GPA aphids present on each cabbage plant. […]

[1] = dose rate 6.25 ppm sulfoxaflor alone

C[C@@H](c1ccc(C(F)(F)F)nc1)[S@](C)(=O)=NC#N (racemic) [Sulfoxaflor, [methyl(oxo){1-[6-(trifluoromethyl)-3-pyridyl]ethyl}-λ^6-sulfanylidene]cyanamide]
number of live GPA aphids (DAT of 21 days, counted three days after infestation): about 10 | number of live GPA aphids (DAT of 28 days): about 90 | % Control at DAT of 21 days [1]: 91.19% | % Control at DAT of 28 days [1]: 0%
